The text below walks through data of article PMC10004634 (PLOS ONE, 2023).

Like-named read-outs stand apart in the source and are kept apart here.

Targets include MAP4K5 (Homo sapiens, UniProt Q9Y4K4); PIK3CA(H1047L) (Homo sapiens, UniProt P42336, H1047L); MAST1 (Homo sapiens, UniProt Q9Y2H9); NEK9 (Homo sapiens, UniProt Q8TD19); EPHB4 (Homo sapiens, UniProt P54760); ACVR1B (Homo sapiens, UniProt P36896); NEK11 (Homo sapiens, UniProt Q8NG66); DAPK1 (Homo sapiens, UniProt P53355); CSNK1G1 (Homo sapiens, UniProt Q9HCP0); NLK (Homo sapiens, UniProt Q9UBE8); TRPM6 (Homo sapiens, UniProt Q9BX84); AKT2 (Homo sapiens, UniProt P31751); TLK1 (Homo sapiens, UniProt Q9UKI8); HCK (Homo sapiens, UniProt P08631).

Holding throughout (experiment): biochemical
Set-up in all cases: KINOMEscan scanMAX competition binding, DNA-tagged kinases, qPCR read-out, percent control at 300 nM
In general terms: Real-time PCR tracks product formation cycle by cycle.

For experiment [1], the target named is T1, ABL1(F317L)-nonphosphorylated (Homo sapiens, UniProt P00519, F317L).
T1 construct: nonphosphorylated

The target of the next experiment is T2, AMPK-alpha2 (Homo sapiens, UniProt P54646).
T2 construct: gene PRKAA2

Experiment [2] concerns the target T3, ABL1(Q252H)-phosphorylated (Homo sapiens, UniProt P00519, Q252H).
T3 construct: phosphorylated

The target in another experiment is T4, DRAK2 (Homo sapiens, UniProt O94768).
T4 construct: gene STK17B

For experiment [3], the target named is T5, RSK2(Kin.Dom.1-N-terminal) (Homo sapiens, UniProt P51812).
T5 construct: gene RPS6KA3; Kin.Dom.1-N-terminal

The next experiment deals with T6, OSR1 (Homo sapiens, UniProt O95747).
T6 construct: gene OXSR1

In the next experiment the target is T7, PFTK1 (Homo sapiens, UniProt O94921).
T7 construct: gene CDK14

In experiment [4] the target is T8, RSK3(Kin.Dom.2-C-terminal) (Homo sapiens, UniProt Q15349).
T8 construct: gene RPS6KA2; Kin.Dom.2-C-terminal
T8 sequence (Q15349 whole entry): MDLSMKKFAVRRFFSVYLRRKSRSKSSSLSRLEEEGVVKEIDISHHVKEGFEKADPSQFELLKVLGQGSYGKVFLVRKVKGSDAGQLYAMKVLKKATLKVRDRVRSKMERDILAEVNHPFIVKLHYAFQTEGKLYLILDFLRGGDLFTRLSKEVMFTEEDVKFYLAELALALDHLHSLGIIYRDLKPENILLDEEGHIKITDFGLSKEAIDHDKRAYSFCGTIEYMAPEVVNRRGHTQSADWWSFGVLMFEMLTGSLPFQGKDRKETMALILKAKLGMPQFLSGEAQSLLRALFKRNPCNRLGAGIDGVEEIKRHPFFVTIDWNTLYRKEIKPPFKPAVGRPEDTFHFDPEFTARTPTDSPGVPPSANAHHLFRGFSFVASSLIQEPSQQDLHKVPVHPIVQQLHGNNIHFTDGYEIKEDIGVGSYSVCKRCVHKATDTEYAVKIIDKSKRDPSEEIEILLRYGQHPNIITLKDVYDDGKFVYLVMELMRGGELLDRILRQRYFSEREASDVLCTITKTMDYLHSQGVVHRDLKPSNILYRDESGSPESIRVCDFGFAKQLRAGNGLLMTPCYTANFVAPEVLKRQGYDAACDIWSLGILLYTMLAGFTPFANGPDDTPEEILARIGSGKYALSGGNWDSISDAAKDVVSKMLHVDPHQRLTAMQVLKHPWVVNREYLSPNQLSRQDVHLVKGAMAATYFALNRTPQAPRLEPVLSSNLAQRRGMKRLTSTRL

Another experiment concerns the target T9, ADCK3 (Homo sapiens, UniProt Q8NI60).
T9 construct: gene COQ8A

[5] abbreviates: read-out: Percent control / Acalabrutinib.
Where [6] appears, read: read-out: Percent control / Ibrutinib.
Setting [7] is: read-out: Percent control / Tirabrutinib.
The mark [8] stands for this setting: read-out: Percent control / Zanubrutinib.

Chain of NLK (Q9UBE8 whole entry): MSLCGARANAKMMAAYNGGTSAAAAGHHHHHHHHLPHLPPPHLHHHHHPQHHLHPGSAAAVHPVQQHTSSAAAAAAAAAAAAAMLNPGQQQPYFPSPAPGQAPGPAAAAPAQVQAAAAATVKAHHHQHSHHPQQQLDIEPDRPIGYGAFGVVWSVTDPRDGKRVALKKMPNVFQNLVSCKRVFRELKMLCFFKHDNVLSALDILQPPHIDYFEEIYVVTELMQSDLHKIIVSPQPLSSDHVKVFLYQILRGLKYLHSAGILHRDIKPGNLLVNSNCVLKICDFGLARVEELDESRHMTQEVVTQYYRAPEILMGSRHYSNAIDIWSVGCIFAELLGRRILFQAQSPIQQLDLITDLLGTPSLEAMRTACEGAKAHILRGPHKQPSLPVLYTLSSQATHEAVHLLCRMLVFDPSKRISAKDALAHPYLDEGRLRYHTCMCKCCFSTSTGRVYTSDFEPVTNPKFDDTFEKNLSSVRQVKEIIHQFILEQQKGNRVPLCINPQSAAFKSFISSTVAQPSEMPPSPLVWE
Chain of MAST1 (Q9Y2H9 whole entry): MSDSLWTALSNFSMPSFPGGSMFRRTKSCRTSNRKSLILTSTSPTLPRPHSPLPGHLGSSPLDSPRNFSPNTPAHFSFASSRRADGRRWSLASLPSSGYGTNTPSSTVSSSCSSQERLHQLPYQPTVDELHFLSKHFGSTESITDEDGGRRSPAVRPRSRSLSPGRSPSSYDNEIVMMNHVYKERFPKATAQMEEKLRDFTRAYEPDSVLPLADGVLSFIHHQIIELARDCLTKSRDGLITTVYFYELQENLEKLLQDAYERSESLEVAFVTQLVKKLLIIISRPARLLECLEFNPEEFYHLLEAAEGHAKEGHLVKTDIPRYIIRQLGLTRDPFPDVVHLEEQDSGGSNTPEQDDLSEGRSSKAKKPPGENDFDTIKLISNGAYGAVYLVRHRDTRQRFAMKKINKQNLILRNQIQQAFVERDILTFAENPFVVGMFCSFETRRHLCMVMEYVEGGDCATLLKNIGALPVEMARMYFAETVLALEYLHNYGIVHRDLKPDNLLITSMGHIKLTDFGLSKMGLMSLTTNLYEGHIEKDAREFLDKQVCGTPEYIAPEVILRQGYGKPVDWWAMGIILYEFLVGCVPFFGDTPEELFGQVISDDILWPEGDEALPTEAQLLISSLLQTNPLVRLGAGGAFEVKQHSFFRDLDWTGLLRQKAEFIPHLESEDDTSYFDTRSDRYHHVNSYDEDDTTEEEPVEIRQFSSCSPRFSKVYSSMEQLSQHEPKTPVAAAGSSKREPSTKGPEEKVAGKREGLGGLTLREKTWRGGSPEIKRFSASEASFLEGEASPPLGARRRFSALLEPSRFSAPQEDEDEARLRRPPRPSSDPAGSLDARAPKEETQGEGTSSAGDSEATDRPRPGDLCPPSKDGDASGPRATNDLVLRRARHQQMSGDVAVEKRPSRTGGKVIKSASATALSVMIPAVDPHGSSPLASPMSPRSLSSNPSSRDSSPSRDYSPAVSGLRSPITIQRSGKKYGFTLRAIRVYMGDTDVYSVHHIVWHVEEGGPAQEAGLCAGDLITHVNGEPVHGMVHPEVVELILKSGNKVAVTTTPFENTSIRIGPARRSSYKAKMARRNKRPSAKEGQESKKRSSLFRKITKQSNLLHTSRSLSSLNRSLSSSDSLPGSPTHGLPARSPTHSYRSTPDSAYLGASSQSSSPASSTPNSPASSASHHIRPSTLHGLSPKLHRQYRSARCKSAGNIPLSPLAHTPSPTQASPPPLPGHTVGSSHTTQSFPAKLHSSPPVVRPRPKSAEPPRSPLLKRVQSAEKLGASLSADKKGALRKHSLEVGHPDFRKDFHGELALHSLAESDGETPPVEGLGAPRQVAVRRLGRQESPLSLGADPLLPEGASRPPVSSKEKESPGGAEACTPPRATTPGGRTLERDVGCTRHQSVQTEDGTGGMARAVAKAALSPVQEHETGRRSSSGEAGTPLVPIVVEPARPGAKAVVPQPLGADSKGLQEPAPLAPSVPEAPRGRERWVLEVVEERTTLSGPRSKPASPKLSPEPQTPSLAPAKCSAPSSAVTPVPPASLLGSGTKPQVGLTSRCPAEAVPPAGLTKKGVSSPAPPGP
Chain of CSNK1G1 (Q9HCP0 whole entry): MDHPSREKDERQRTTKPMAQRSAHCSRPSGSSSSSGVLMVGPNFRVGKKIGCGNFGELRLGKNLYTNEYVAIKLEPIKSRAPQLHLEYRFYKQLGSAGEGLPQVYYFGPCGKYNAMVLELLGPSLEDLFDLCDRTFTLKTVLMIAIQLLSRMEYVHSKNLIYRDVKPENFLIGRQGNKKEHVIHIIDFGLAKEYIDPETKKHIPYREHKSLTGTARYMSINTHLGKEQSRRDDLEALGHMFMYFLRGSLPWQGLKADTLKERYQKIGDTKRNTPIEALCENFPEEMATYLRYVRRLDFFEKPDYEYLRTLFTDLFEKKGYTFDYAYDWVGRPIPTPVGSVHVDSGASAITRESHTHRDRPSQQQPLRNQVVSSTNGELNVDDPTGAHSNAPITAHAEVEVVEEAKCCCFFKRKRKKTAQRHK
T9 sequence (Q8NI60 whole entry): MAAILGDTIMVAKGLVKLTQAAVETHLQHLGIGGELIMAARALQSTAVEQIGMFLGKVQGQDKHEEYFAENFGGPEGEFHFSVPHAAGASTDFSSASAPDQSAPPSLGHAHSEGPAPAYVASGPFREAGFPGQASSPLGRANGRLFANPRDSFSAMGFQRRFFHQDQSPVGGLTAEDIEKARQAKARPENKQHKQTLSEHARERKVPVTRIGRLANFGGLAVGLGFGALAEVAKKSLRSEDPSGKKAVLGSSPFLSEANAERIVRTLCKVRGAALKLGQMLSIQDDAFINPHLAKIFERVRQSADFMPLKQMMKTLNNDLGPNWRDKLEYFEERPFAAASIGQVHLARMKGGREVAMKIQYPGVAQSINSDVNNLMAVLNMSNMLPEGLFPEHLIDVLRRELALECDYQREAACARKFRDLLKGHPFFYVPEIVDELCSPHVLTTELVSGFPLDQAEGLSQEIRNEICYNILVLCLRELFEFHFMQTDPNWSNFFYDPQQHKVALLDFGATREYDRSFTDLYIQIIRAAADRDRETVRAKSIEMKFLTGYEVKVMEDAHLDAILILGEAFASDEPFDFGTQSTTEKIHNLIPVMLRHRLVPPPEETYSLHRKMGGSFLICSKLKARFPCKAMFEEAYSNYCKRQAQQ
Chain of MAP4K5 (Q9Y4K4 whole entry): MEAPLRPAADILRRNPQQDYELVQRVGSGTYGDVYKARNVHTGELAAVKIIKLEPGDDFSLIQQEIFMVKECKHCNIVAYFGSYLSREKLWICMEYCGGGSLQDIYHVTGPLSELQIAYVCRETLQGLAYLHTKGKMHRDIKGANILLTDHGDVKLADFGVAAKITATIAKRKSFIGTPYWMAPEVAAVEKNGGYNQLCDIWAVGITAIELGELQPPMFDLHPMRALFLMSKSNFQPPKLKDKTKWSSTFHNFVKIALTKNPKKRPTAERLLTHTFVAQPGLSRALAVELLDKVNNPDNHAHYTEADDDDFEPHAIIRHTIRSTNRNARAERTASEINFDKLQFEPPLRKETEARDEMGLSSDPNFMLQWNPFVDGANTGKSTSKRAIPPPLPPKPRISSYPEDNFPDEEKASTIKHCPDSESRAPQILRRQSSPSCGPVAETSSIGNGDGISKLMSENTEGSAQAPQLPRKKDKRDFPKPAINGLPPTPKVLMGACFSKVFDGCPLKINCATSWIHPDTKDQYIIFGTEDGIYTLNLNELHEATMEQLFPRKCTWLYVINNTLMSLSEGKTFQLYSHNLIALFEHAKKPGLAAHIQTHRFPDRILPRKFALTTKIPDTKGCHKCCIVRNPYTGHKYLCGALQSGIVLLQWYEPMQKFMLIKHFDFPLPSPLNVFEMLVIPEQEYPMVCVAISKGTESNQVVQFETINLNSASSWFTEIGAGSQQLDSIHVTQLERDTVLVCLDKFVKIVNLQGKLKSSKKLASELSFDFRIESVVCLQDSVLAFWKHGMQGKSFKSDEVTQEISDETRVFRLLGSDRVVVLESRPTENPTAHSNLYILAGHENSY

Turning to `CC#CC(=O)N1CCC[C@H]1c1nc(-c2ccc(C(=O)Nc3ccccn3)cc2)c2c(N)nccn12` [Acalabrutinib], the remaining binding at 0.3 µM at MAP4K5 (setting [5]) came out at 90%; at PIK3CA(H1047L) (setting [5]), 90%; in [1] (setting [5]) it was 78%; on MAST1 (setting [5]) it was 87%; at AMPK-alpha2 (setting [5]), 96%; in [2] (setting [5]), 86%. For the same molecule, the remaining binding at 0.3 µM on NEK9 (setting [5]) is 82%; on DRAK2 (setting [5]), 97%; on EPHB4 (setting [5]), 93%; on ACVR1B (setting [5]), 99%; on NEK11 (setting [5]), 97%; on DAPK1 (setting [5]), 94%. For the same molecule, the remaining binding at 0.3 µM on CSNK1G1 (setting [5]) was found to be 90%; on NLK (setting [5]), 78%; in experiment [3] (setting [5]) it was 84%; on OSR1 (setting [5]), 92%; on TRPM6 (setting [5]) it was 96%; at PFTK1 (setting [5]), 89%. At AKT2 (setting [5]), the remaining binding at 0.3 µM came out at 87%.
In the case of `C=CC(=O)N1CCC[C@@H](n2nc(-c3ccc(Oc4ccccc4)cc3)c3c(N)ncnc32)C1` [Ibrutinib], the remaining binding at 0.3 µM in experiment [4] (setting [6]) worked out at 90%; in [1] (setting [6]) it was 54%; on AMPK-alpha2 (setting [6]), 97%; on ADCK3 (setting [6]), 98%; on TLK1 (setting [6]) it was 80%; on NEK9 (setting [6]), 94%. Also, the remaining binding at 0.3 µM at DRAK2 (setting [6]) is 82%; on HCK (setting [6]), 4.5%.
Regarding `CC#CC(=O)N1CC[C@@H](n2c(=O)n(-c3ccc(Oc4ccccc4)cc3)c3c(N)ncnc32)C1` [Tirabrutinib], the figures for the remaining binding at 0.3 µM (on ADCK3 (setting [7]); in experiment [2] (setting [7]); on HCK (setting [7])) were 95%, 87% and 57%, respectively.
As for `C=CC(=O)N1CCC([C@@H]2CCNc3c(C(N)=O)c(-c4ccc(Oc5ccccc5)cc4)nn32)CC1` [Zanubrutinib], the remaining binding at 0.3 µM worked out at 98% at MAP4K5 (setting [8]); 84% in experiment [4] (setting [8]); 100% on PIK3CA(H1047L) (setting [8]); 100% at MAST1 (setting [8]); 92% at TLK1 (setting [8]); 87% at EPHB4 (setting [8]). Moreover, the remaining binding at 0.3 µM at ACVR1B (setting [8]) amounted to 92%; at NEK11 (setting [8]), 98%; at DAPK1 (setting [8]), 87%; on CSNK1G1 (setting [8]), 91%; at NLK (setting [8]), 80%; in experiment [3] (setting [8]), 82%. Further, the remaining binding at 0.3 µM on OSR1 (setting [8]) was found to be 100%; at TRPM6 (setting [8]), 63%; at PFTK1 (setting [8]) it was 92%; on AKT2 (setting [8]), 82%.
